According to ChEMBL document CHEMBL4052645, “Discovery of potent and efficacious pyrrolopyridazines as dual JAK1/3 inhibitors” (Bioorg Med Chem Lett, 2017):

Experiments:
[1] = molecular target: Serine/threonine-protein kinase 32A (Homo sapiens) (UniProt Q8WU08); assay: Inhibition of wild-type human full length STK32A (M1 to L396 residues) expressed in mammalian expression system assessed as residual activity at 50 nM by Kinomescan method relative to control
[2] = molecular target: Serine/threonine-protein kinase 3 (Homo sapiens) (UniProt Q13188); assay: Inhibition of human MST2 (D17 to E318 residues) expressed in bacterial expression system assessed as residual activity at 50 nM by KINOMEscan assay relative to control
[3] = molecular target: Serine/threonine-protein kinase MARK1 (Homo sapiens) (UniProt Q9P0L2); assay: Inhibition of wild-type human partial length MARK1 (Q30 to T341 residues) expressed in bacterial expression system assessed as residual activity at 50 nM by Kinomescan method relative to control
[4] = molecular target: Cyclin-dependent kinase 13 (Homo sapiens) (UniProt Q14004); assay: Inhibition of wild-type human partial length CDC2L5 (H675 to S1054 residues) expressed in mammalian expression system assessed as residual activity at 50 nM by Kinomescan method relative to control
[5] = molecular target: BMP-2-inducible protein kinase (Homo sapiens) (UniProt Q9NSY1); assay: Inhibition of human BIKE (S34 to N329 residues) expressed in bacterial expression system assessed as residual activity at 50 nM by KINOMEscan assay relative to control
[6] = molecular target: Calcium/calmodulin-dependent protein kinase kinase 1 (Homo sapiens) (UniProt Q8N5S9); assay: Inhibition of wild-type human partial length CAMKK1 (R65 to E414 residues) expressed in bacterial expression system assessed as residual activity at 50 nM by Kinomescan method relative to control
[7] = molecular target: Protein kinase C delta type (Homo sapiens) (UniProt Q05655); assay: Inhibition of human PKCD (Q328 to D676 residues) expressed in bacterial expression system assessed as residual activity at 50 nM by KINOMEscan assay relative to control
[8] = molecular target: Serine/threonine-protein kinase PAK 4 (Homo sapiens) (UniProt O96013); assay: Inhibition of wild-type human partial length PAK4 (Q144 to R438 residues) expressed in bacterial expression system assessed as residual activity at 50 nM by Kinomescan method relative to control
[9] = molecular target: Bone morphogenetic protein receptor type-2 (Homo sapiens) (UniProt Q13873); assay: Inhibition of wild-type human partial length BMPR2 (R179 to Q526 residues) expressed in mammalian expression system assessed as residual activity at 50 nM by Kinomescan method relative to control
[10] = molecular target: Serine/threonine-protein kinase N1 (Homo sapiens) (UniProt Q16512); assay: Inhibition of human PKN1 (E598 to C948 residues) expressed in bacterial expression system assessed as residual activity at 50 nM by KINOMEscan assay relative to control
[11] = molecular target: Calcium/calmodulin-dependent protein kinase type 1G (Homo sapiens) (UniProt Q96NX5); assay: Inhibition of wild-type human partial length CAMK1G (M1 to A342 residues) expressed in bacterial expression system assessed as residual activity at 50 nM by Kinomescan method relative to control
[12] = molecular target: Tyrosine-protein kinase receptor TYRO3 (Homo sapiens) (UniProt Q06418); assay: Inhibition of wild-type human partial length TYRO3 (S497 to T814 residues) expressed in bacterial expression system assessed as residual activity at 50 nM by Kinomescan method relative to control
[13] = molecular target: Ephrin type-A receptor 4 (Homo sapiens) (UniProt P54764); assay: Inhibition of wild-type human partial length EPHA4 (T601 to R897 residues) expressed in bacterial expression system assessed as residual activity at 50 nM by Kinomescan method relative to control
[14] = molecular target: Mitogen-activated protein kinase kinase kinase kinase 5 (Homo sapiens) (UniProt Q9Y4K4); assay: Inhibition of recombinant human KHS1 (M1 to P297 residues) expressed in bacterial expression system assessed as residual activity at 50 nM by Kinomescan method relative to control
[15] = molecular target: Calcium/calmodulin-dependent protein kinase type II subunit delta (Homo sapiens) (UniProt Q13557); assay: Inhibition of wild-type human partial length CAMK2D (M1 to E329 residues) expressed in bacterial expression system assessed as residual activity at 50 nM by Kinomescan method relative to control
[16] = molecular target: Calcium/calmodulin-dependent protein kinase type II subunit alpha (Homo sapiens) (UniProt Q9UQM7); assay: Inhibition of wild-type human partial length CAMK2A (M1 to K328 residues) expressed in bacterial expression system assessed as residual activity at 50 nM by Kinomescan method relative to control
[17] = molecular target: Mitogen-activated protein kinase kinase kinase kinase 4 (Homo sapiens) (UniProt O95819); assay: Inhibition of wild-type human partial length HGK (M1 to R310 residues) expressed in bacterial expression system assessed as residual activity at 50 nM by Kinomescan method relative to control
[18] = molecular target: Serine/threonine-protein kinase N2 (Homo sapiens) (UniProt Q16513); assay: Inhibition of human PKN2 (E634 to C948 residues) expressed in bacterial expression system assessed as residual activity at 50 nM by KINOMEscan assay relative to control
[19] = molecular target: Insulin receptor-related protein (Homo sapiens) (UniProt P14616); assay: Inhibition of wild-type human partial length IRR (R950 to E1278 residues) expressed in bacterial expression system assessed as residual activity at 50 nM by Kinomescan method relative to control
[20] = molecular target: Ephrin type-B receptor 6 (Homo sapiens) (UniProt O15197); assay: Inhibition of wild-type human partial length EPHB6 (Q634 to P948 residues) expressed in mammalian expression system assessed as residual activity at 50 nM by Kinomescan method relative to control
[21] = molecular target: Misshapen-like kinase 1 (Homo sapiens) (UniProt Q8N4C8); assay: Inhibition of wild-type human partial length MINK (M1 to K312 residues) expressed in mammalian expression system assessed as residual activity at 50 nM by Kinomescan method relative to control
[22] = molecular target: Mitogen-activated protein kinase kinase kinase 5 (Homo sapiens) (UniProt Q99683); assay: Inhibition of wild-type human partial length MAP3K5 (E648 to S964 residues) expressed in bacterial expression system assessed as residual activity at 50 nM by Kinomescan method relative to control
[23] = molecular target: Fibroblast growth factor receptor 4 (Homo sapiens) (UniProt P22455); assay: Inhibition of wild-type human partial length FGFR4 (G402 to E713 residues) expressed in bacterial expression system assessed as residual activity at 50 nM by Kinomescan method relative to control
[24] = molecular target: Cyclin-dependent kinase 8 (Homo sapiens) (UniProt P49336); assay: Inhibition of wild-type human partial length CDK8 (M1 to T360 residues) expressed in bacterial expression system assessed as residual activity at 50 nM by Kinomescan method relative to control
[25] = molecular target: Tyrosine-protein kinase TXK (Homo sapiens) (UniProt P42681); assay: Inhibition of wild-type human partial length TXK (L238 to W527 residues) expressed in bacterial expression system assessed as residual activity at 50 nM by Kinomescan method relative to control

Sequence of Serine/threonine-protein kinase MARK1 (Homo sapiens) (Q9P0L2 whole entry, looked up, the tested form may be a part): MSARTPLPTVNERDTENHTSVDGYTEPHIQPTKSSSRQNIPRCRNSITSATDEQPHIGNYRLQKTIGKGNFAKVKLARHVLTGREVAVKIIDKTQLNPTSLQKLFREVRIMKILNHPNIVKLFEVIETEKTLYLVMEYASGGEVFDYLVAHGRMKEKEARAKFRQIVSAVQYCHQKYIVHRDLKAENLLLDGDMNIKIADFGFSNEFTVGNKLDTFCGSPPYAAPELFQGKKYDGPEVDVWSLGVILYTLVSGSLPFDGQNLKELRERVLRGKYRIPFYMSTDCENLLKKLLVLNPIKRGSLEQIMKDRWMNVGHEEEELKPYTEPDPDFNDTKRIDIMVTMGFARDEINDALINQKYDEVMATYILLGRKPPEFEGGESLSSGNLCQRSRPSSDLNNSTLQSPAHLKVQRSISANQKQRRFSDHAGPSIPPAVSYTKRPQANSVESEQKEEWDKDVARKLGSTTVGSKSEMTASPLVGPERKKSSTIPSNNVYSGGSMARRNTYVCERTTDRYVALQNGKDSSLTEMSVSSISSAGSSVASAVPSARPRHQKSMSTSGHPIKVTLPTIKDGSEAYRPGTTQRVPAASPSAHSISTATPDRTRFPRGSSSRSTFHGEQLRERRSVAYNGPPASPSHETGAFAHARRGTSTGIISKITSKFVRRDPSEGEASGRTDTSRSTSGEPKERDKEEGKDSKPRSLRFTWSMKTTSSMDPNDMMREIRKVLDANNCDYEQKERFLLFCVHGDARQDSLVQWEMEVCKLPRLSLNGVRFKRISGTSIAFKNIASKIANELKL
Sequence of Serine/threonine-protein kinase N2 (Homo sapiens) (Q16513 whole entry, looked up, the tested form may be a part): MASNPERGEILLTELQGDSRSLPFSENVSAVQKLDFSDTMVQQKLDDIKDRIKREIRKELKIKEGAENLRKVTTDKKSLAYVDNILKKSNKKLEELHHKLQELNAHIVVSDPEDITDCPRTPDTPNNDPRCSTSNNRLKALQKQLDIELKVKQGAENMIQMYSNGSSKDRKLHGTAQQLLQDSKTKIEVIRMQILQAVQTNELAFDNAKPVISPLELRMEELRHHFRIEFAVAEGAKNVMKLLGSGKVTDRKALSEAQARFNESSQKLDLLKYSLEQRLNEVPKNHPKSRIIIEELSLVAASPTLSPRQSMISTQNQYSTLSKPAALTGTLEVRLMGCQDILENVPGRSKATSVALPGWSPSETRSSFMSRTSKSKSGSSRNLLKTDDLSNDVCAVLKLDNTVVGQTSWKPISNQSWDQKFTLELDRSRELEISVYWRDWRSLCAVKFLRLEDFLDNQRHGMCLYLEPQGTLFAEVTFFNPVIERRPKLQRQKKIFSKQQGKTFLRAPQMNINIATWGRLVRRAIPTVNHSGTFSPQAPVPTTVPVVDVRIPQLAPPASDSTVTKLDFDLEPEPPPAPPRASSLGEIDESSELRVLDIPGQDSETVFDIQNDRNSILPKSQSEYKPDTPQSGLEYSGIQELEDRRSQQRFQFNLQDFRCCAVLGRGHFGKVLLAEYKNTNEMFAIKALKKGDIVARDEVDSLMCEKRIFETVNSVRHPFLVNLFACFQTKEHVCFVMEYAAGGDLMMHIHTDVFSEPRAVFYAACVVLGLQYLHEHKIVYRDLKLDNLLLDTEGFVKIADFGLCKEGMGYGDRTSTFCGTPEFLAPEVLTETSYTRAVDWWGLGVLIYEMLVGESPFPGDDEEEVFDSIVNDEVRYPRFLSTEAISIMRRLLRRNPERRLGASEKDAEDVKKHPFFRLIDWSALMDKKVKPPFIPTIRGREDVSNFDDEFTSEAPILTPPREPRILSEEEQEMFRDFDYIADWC
Sequence of Calcium/calmodulin-dependent protein kinase type 1G (Homo sapiens) (Q96NX5 whole entry, the tested form may be a part): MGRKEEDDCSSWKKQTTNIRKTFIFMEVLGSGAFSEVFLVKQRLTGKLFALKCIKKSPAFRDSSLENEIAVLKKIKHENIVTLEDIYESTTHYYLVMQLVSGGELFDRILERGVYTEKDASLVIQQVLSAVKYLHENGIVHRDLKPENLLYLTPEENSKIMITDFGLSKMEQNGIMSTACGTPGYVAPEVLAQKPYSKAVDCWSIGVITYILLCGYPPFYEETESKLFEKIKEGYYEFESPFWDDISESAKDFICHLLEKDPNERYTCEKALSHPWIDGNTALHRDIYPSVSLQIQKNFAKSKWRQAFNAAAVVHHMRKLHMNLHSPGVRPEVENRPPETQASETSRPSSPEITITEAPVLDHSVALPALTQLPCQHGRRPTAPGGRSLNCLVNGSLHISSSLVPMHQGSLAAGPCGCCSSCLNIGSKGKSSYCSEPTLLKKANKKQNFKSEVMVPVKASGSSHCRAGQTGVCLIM
Sequence of Ephrin type-A receptor 4 (Homo sapiens) (P54764 whole entry, the tested form may be a part): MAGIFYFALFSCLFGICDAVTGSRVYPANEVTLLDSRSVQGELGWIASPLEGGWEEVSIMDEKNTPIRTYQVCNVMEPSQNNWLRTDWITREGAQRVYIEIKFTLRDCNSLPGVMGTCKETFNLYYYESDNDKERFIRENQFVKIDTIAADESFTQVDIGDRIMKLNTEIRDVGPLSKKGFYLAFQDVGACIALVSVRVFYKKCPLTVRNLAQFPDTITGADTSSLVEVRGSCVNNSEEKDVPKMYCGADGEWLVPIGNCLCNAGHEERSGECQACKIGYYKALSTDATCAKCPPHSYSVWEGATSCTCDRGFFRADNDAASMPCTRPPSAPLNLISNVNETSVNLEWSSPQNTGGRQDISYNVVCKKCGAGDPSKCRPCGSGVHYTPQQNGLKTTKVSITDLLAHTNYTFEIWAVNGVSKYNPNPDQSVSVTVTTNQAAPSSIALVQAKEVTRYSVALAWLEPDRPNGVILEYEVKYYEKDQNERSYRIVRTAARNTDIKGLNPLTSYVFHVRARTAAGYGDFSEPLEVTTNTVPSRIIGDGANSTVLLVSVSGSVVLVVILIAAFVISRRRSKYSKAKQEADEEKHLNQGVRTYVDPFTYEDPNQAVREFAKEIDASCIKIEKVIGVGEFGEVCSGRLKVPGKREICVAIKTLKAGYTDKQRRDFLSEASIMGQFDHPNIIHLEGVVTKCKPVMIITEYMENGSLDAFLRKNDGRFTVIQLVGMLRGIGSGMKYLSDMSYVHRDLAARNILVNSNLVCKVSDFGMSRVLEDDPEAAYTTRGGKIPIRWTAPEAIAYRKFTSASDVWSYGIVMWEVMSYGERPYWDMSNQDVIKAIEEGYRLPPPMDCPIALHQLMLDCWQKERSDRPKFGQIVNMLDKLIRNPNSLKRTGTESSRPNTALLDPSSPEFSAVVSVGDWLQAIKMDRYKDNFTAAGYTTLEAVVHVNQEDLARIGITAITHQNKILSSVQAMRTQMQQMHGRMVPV
Sequence of Tyrosine-protein kinase receptor TYRO3 (Homo sapiens) (Q06418 whole entry, the tested form may be a part): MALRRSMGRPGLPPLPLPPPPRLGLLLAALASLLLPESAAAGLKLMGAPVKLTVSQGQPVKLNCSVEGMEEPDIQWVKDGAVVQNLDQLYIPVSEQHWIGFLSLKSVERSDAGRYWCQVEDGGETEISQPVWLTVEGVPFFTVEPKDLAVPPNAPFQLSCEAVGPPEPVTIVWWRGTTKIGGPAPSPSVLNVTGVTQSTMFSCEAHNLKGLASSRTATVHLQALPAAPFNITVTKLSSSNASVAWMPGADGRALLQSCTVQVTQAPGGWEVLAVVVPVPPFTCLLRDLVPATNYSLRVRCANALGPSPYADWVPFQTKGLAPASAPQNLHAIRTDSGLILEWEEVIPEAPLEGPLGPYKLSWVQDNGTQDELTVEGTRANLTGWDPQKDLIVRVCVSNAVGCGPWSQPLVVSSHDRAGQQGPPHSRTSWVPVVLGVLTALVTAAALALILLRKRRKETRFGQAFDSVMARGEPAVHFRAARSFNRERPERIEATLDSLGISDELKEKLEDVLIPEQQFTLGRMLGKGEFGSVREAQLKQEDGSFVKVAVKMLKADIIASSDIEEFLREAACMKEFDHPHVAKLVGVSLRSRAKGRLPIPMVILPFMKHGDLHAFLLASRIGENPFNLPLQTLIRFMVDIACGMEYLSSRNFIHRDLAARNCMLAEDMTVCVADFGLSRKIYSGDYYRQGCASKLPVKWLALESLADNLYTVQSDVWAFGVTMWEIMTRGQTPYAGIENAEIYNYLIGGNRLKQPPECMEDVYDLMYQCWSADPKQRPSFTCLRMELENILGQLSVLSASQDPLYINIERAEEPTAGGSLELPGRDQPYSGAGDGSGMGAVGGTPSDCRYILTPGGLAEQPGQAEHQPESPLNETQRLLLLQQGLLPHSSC
Sequence of Calcium/calmodulin-dependent protein kinase type II subunit delta (Homo sapiens) (Q13557 whole entry, the tested form may be a part): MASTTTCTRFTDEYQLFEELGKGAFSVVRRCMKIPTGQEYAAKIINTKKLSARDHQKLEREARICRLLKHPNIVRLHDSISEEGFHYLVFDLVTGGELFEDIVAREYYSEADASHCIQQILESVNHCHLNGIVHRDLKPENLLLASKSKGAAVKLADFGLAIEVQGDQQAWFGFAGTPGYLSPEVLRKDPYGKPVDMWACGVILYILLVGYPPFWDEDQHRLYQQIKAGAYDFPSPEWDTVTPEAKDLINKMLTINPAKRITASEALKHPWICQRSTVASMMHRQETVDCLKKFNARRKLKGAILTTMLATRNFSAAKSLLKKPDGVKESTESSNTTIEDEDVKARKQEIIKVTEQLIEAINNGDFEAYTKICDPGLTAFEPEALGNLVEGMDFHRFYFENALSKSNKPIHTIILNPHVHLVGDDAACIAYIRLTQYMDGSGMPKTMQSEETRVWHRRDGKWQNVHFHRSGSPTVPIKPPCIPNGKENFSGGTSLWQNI
Sequence of Serine/threonine-protein kinase 32A (Homo sapiens) (Q8WU08 whole entry, the tested form may be a part): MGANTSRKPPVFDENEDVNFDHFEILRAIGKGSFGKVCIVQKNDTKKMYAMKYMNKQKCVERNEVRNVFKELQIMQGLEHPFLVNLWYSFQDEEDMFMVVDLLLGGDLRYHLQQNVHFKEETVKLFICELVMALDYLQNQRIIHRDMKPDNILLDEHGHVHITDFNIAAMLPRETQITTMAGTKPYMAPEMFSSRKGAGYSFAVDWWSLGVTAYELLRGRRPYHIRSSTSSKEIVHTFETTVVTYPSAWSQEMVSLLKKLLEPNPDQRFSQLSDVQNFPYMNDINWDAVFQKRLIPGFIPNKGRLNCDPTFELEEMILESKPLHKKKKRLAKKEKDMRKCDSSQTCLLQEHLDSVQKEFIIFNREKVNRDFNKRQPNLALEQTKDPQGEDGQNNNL

Compound | Activity [1] [%] | Activity [2] [%] | Activity [3] [%] | Activity [4] [%] | Activity [5] [%] | Activity [6] [%] | Activity [7] [%] | Activity [8] [%] | Activity [9] [%] | Activity [10] [%] | Activity [11] [%] | Activity [12] [%] | Activity [13] [%] | Activity [14] [%] | Activity [15] [%] | Activity [16] [%] | Activity [17] [%] | Activity [18] [%] | Activity [19] [%] | Activity [20] [%] | other results
COc1ccc(-c2cc3c(N[C@@H]4CC[C@](C)(N)C4(C)C)c(C(N)=O)cnn3c2)cn1 | 100 | 6 | 91 | 100 | 42 | 100 | 30 | 86 | 100 | 7 | 82 | 89 | 100 | 100 | 100 | 100 | 100 | 27 | 92 | 86 | Activity [21]: 96%; Activity [22]: 100%; Activity [23]: 91%; Activity [24]: 86%; Activity [25]: 100%
CC1(C)[C@H](Nc2c(C(N)=O)cnn3cc(-c4ccccc4)cc23)CC[C@]1(C)N | 92 | 6.2 | 99 | 72 | 7.5 | 92 | 9.5 | 73 | 93 | 0.3 | 100 | 100 | 100 | 80 | 100 | 88 | 90 | 3 | 100 | 66 | Activity [21]: 100%; Activity [22]: 100%; Activity [23]: 88%; Activity [24]: 100%; Activity [25]: 100%
